Where two headings read alike, the source gives them in different places.
Biological target: T1, human recombinant LPA2 (Homo sapiens, UniProt Q9HBW0)
T1 construct: expressed in transfected cells; host or cells: CHO (CHO-hLPA2 cell line)
Test: FLIPR calcium mobilization assay, LPA2 antagonism in CHO-hLPA2 cells
Assay type: cell-based
Experimental: The effectiveness of compounds of the present invention as LPA2 antagonist can be determined at the human recombinant LPA2 expressed in CHO cells, using a FLIPR assay in 384 well format.
CHO-hLPA2 cell lines are cultured in a humidified incubator at 5% CO2 in DMEM/F-12 (1:1) MIXTURE with 2 mM Glutamax, supplemented with 10% of Foetal Bovine Serum, 1 mM Sodium Pyruvate, 11 mM Hepes and 1× Penicillin/Streptomycin. CHO hLPA2 cells are seeded into black walled clear-bottom 384-well plates (#781091, Greiner Bio-One GmbH) at a density of 7,500 cells per well in 50 μl culture media and grown overnight in a 37° C. humidified CO2-incubator. Serial dilutions (1:3 or 1:4, 11 points CRC) of compounds are performed in 100% DMSO at 200× the final concentration. The compounds are diluted 1:50 prior to the experiment with Assay Buffer (20 mM HEPES, 145 mM NaCl, 5 mM KCl, 5.5 mM glucose, 1 mM MgCl2 and 2 mM CaCl2, pH 7.4 containing 0.01% Pluronic F-127) to obtain a solution corresponding to […] the final concentration in the assay (4×, 2% DMSO). The final concentration of DMSO in the assay will be 0.5% in each well. Medium is removed by aspiration and cells are then incubated with 30 μl of a loading solution containing 5 μM of the cytoplasmic Ca2+ indicator Cal-520 AM in Assay Buffer containing 2.5 mM probenecid for 30 min at 37° C. incubator (cell loading). The loaded cell plates are transferred into the FLIPR instrument and calcium responses are monitored during the on-line addition protocols. For testing of compounds, after the cell loading, 10 μl/well of 4× antagonists' solution was added onto the cells. After 30 min pre-incubation (at 37° C.), 10 μl/well of 5× concentrated LPA EC80 was added and Ca2+ mobilization responses was followed during the on-line addition protocol. Intracellular peak fluorescence values subtracted by baseline fluorescence are exported and analysed to determine IC50 values, respectively. The calcium response is expressed as percentage of the maximal inhibition of the EC80 agonist response.
The raw data (peak height expressed as relative fluorescence units) are normalized and transformed into “percent of inhibition”. Curve fitting and pIC50 (−Log IC50) estimations are carried out using a four-parameter logistic model using XLfit Software.

[1] = human recombinant LPA2 in CHO cells, LPA EC80 stimulation, 30 min pre-incubation, read-out: LPA2 IC50

T1 sequence (Q9HBW0 whole entry): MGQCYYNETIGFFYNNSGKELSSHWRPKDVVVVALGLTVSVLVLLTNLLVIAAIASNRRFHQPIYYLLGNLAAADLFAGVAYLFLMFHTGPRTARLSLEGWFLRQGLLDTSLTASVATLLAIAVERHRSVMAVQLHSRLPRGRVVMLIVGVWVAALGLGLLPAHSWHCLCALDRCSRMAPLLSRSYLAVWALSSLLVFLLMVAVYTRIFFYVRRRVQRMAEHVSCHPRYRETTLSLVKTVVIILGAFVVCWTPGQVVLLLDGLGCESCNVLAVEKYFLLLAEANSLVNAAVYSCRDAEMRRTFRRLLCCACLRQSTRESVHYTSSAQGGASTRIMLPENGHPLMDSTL

SMILES | IC50 [1] | IC50 (same in vitro assay as Table 2, read-out: IC50 on LPA2 receptor)
Cc1csc2c(N[C@@H](C)CN3CCN(S(=O)(=O)c4cccc(Br)c4)CC3)ncnc12 [Example 7, N-[(2S)-1-[4-(3-bromobenzenesulfonyl)piperazin-1-yl]propan-2-yl]-7-methylthieno[3,2-d]pyrimidin-4-amine] | < 1000 nM | 
Cc1nc(NC=O)sc1S(=O)(=O)N1CCN(C[C@H](C)Nc2ncnc3c(C)csc23)CC1 [Example 26, N-[4-methyl-5-({4-[(2S)-2-({7-methylthieno[3,2-d]pyrimidin-4-yl}amino)propyl]piperazin-1-yl}sulfonyl)-1,3-thiazol-2-yl]formamide] | < 1000 nM | 
Cc1nc(-c2ccc(S(=O)(=O)N3CCN(C[C@H](C)Nc4ncnc5c(C)csc45)CC3)cc2)cs1 [Example 5, 7-methyl-N-[(2S)-1-{4-[4-(2-methyl-1,3-thiazol-4-yl)benzenesulfonyl]piperazin-1-yl}propan-2-yl]thieno[3,2-d]pyrimidin-4-amine] | < 1000 nM | 
CC(=O)Nc1nc(C)c(S(=O)(=O)N2CCN(C[C@H](C)Nc3nc(C4CC4)nc4c(C)csc34)CC2)s1 [Example 35, N-[5-({4-[(2S)-2-({2-cyclopropyl-7-methylthieno[3,2-d]pyrimidin-4-yl}amino)propyl]piperazin-1-yl}sulfonyl)-4-methyl-1,3-thiazol-2-yl]acetamide] | 10 to 100 nM | 
Cc1noc(-c2ccc(S(=O)(=O)N3CCN(C[C@H](C)Nc4ncnc5c(C)csc45)CC3)s2)c1C [Example 28, N-[(2S)-1-(4-{[5-(3,4-dimethyl-1,2-oxazol-5-yl)thiophen-2-yl]sulfonyl}piperazin-1-yl)propan-2-yl]-7-methylthieno[3,2-d]pyrimidin-4-amine] | 10 to 100 nM | 
Cc1csc2c(N[C@@H](C)CN3CCN(S(=O)(=O)c4cnn(-c5ccc(C(F)(F)F)cn5)c4)CC3)ncnc12 [Example 25, 7-methyl-N-[(2S)-1-[4-({1-[5-(trifluoromethyl)pyridin-2-yl]-1H-pyrazol-4-yl}sulfonyl)piperazin-1-yl]propan-2-yl]thieno[3,2-d]pyrimidin-4-amine] | < 1000 nM | 
Cc1csc2c(N[C@@H](C)CN3CCN(S(=O)(=O)c4cnc(-c5ccccc5)nc4)CC3)ncnc12 [Example 15, 7-methyl-N-[(2S)-1-{4-[(2-phenylpyrimidin-5-yl)sulfonyl]piperazin-1-yl}propan-2-yl]thieno[3,2-d]pyrimidin-4-amine] | < 1000 nM | 
Cc1nc(NC(=O)C2CN(C(=O)OC(C)(C)C)C2)sc1S(=O)(=O)N1CCN(C[C@H](C)Nc2ncnc3c(C)csc23)CC1 [Example 33, tert-butyl 3-{[4-methyl-5-({4-[(2S)-2-({7-methylthieno[3,2-d]pyrimidin-4-yl}amino)propyl]piperazin-1-yl}sulfonyl)-1,3-thiazol-2-yl]carbamoyl}azetidine-1-carboxylate] | < 1000 nM | 
Cc1csc2c(N[C@@H](C)CN3CCN(S(=O)(=O)c4ccc(-c5cc(C(F)(F)F)n(C)n5)s4)CC3)ncnc12 [Example 29, 7-methyl-N-[(2S)-1-[4-({5-[1-methyl-5-(trifluoromethyl)-1H-pyrazol-3-yl]thiophen-2-yl}sulfonyl)piperazin-1-yl]propan-2-yl]thieno[3,2-d]pyrimidin-4-amine] | < 1000 nM | 
Cc1nc2ccc(S(=O)(=O)N3CCN(C[C@H](C)Nc4ncnc5c(C)csc45)CC3)cc2s1 [Example 23, 7-methyl-N-[(2S)-1-{4-[(2-methyl-1,3-benzothiazol-6-yl)sulfonyl]piperazin-1-yl}propan-2-yl]thieno[3,2-d]pyrimidin-4-amine] | < 1000 nM | 
Cc1csc2c(N[C@@H](C)CN3CCN(S(=O)(=O)c4ccc(NC(=O)c5ccncc5)cc4)CC3)ncnc12 [Example 16, N-[4-({4-[(2S)-2-({7-methylthieno[3,2-d]pyrimidin-4-yl}amino)propyl]piperazin-1-yl}sulfonyl)phenyl]pyridine-4-carboxamide] | < 1000 nM | 
CC(=O)Nc1cc(F)c(S(=O)(=O)N2CCN(C[C@H](C)Nc3ncnc4c(C)csc34)CC2)cc1C [Example 6, N-[5-fluoro-2-methyl-4-({4-[(2S)-2-({7-methylthieno[3,2-d]pyrimidin-4-yl}amino)propyl]piperazin-1-yl}sulfonyl)phenyl]acetamide] | < 1000 nM | 
COC(=O)Nc1nc(C)c(S(=O)(=O)N2CCN(C[C@H](C)Nc3nc(C)nc4c(C)csc34)CC2)s1 [Example 37, Methyl N-[5-({4-[(2S)-2-({2,7-dimethylthieno[3,2-d]pyrimidin-4-yl}amino)propyl]piperazin-1-yl}sulfonyl)-4-methyl-1,3-thiazol-2-yl]carbamate] | < 1000 nM | 
CCC(=O)Nc1nc(C)c(S(=O)(=O)N2CCN(C[C@H](C)Nc3ncnc4c(C)csc34)CC2)s1 [Example 19, N-[4-methyl-5-({4-[(2S)-2-({7-methylthieno[3,2-d]pyrimidin-4-yl}amino)propyl]piperazin-1-yl}sulfonyl)-1,3-thiazol-2-yl]propanamide] | < 1000 nM | 
Cc1csc2c(N[C@@H](C)CN3CCN(S(=O)(=O)c4ccc(-c5ccno5)s4)CC3)ncnc12 [Example 21, 7-methyl-N-[(2S)-1-(4-{[5-(1,2-oxazol-5-yl)thiophen-2-yl]sulfonyl}piperazin-1-yl)propan-2-yl]thieno[3,2-d]pyrimidin-4-amine] | < 1000 nM | 
COC(=O)Nc1nc(C)c(S(=O)(=O)N2CCN(C[C@H](C)Nc3ncnc4c(-c5cccnc5)cn(C)c34)CC2)s1 [comparative Example A, Methyl (S)-(4-methyl-5-((4-(2-((5-methyl-7-(pyridin-3-yl)-5H-pyrrolo[3,2-d]pyrimidin-4-yl)amino)propyl)piperazin-1-yl)sulfonyl)thiazol-2-yl)carbamate, reference compound] |  | > 2000 nM
Cc1nc(-c2ccc(S(=O)(=O)N3CCN(C[C@H](C)Nc4ncnc5c(C)csc45)CC3)s2)cs1 [Example 27, 7-methyl-N-[(2S)-1-(4-{[5-(2-methyl-1,3-thiazol-4-yl)thiophen-2-yl]sulfonyl}piperazin-1-yl)propan-2-yl]thieno[3,2-d]pyrimidin-4-amine] | < 1000 nM | 
Cc1csc(-c2ccc(S(=O)(=O)N3CCN(C[C@H](C)Nc4ncnc5c(C)csc45)CC3)cc2)n1 [Example 17, 7-methyl-N-[(2S)-1-{4-[4-(4-methyl-1,3-thiazol-2-yl)benzenesulfonyl]piperazin-1-yl}propan-2-yl]thieno[3,2-d]pyrimidin-4-amine] | < 1000 nM | 
COC(=O)c1ccc(S(=O)(=O)N2CCN(C[C@H](C)Nc3ncnc4c(C)csc34)CC2)s1 [Example 4, Methyl 5-({4-[(2S)-2-({7-methylthieno[3,2-d]pyrimidin-4-yl}amino)propyl]piperazin-1-yl}sulfonyl)thiophene-2-carboxylate] | < 1000 nM | 
Cc1csc2c(N[C@@H](C)CN3CCN(S(=O)(=O)c4ccc(-c5ccccn5)s4)CC3)ncnc12 [Example 30, 7-methyl-N-[(2S)-1-(4-{[5-(pyridin-2-yl)thiophen-2-yl]sulfonyl}piperazin-1-yl)propan-2-yl]thieno[3,2-d]pyrimidin-4-amine] | < 1000 nM | 
CC(=O)N1CCc2cc(S(=O)(=O)N3CCN(C[C@H](C)Nc4ncnc5c(C)csc45)CC3)ccc21 [Example 24, 1-[5-({4-[(2S)-2-({7-methylthieno[3,2-d]pyrimidin-4-yl}amino)propyl]piperazin-1-yl}sulfonyl)-2,3-dihydro-1H-indol-1-yl]ethan-1-one] | < 1000 nM | 
CC(=O)Nc1cc(F)c(S(=O)(=O)N2CCN(C[C@H](C)Nc3ncnc4c(C)csc34)CC2)cc1Cl [Example 18, N-[2-chloro-5-fluoro-4-({4-[(2S)-2-({7-methylthieno[3,2-d]pyrimidin-4-yl}amino)propyl]piperazin-1-yl}sulfonyl)phenyl]acetamide] | < 1000 nM | 
COC(=O)Nc1nc(C)c(S(=O)(=O)N2CCN(C[C@H](C)Nc3nc(C4CC4)nc4c(C(F)(F)F)csc34)CC2)s1 [Example 34, methyl N-[5-({4-[(2S)-2-{[2-cyclopropyl-7-(trifluoromethyl)thieno[3,2-d]pyrimidin-4-yl]amino}propyl]piperazin-1-yl}sulfonyl)-4-methyl-1,3-thiazol-2-yl]carbamate] | < 10 nM | 
COC(=O)c1cc(Br)c(S(=O)(=O)N2CCN(C[C@H](C)Nc3ncnc4c(C)csc34)CC2)s1 [Example 13, methyl 4-bromo-5-({4-[(2S)-2-({7-methylthieno[3,2-d]pyrimidin-4-yl}amino)propyl]piperazin-1-yl}sulfonyl)thiophene-2-carboxylate] | < 1000 nM | 

Reference: patent US20230061417A1, “THIENOPYRIMIDINE DERIVATIVES AS LPA RECEPTOR 2 INHIBITORS” (CHIESI FARMACEUTICI S.P.A., priority 2019, published 2023)
